Source: ChEMBL document CHEMBL1125873 (J Med Chem, 1991)

Experiments:
[1] = Loss of first equivalent halide ion using Chloride ion electrode experiments.; format: ADME
[2] = Half-life value of the compound.; format: ADME

For `O=P(O)(NCCCl)NCCCl` [PALIFOSFAMIDE], the “k x10e3” value [1] was 10 min-1 and the half-life [2] was 1.15 h.
